Assay results as given in the supplement of paper PMC9663587.

Assays:
Assay in all cases: area over the GR curve, 72 h; higher = more effect;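 further: Dye Drop or Deep Dye Drop imaging of viable cells in 384-well plates (Hoechst nuclei, LIVE/DEAD dye), nine half-log doses, GR normalized to DMSO controls and time-zero plates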
MDAMB175VII = tested on: MDAMB175VII
MDAMB436 = tested on: MDAMB436
HCC1187 = tested on: HCC1187
SUM44PE = tested on: SUM44PE
HCC70 = tested on: HCC70
MCF12A = tested on: MCF12A
HCC1143 = tested on: HCC1143
HCC202 = tested on: HCC202
MDAMB453 = tested on: MDAMB453
UACC893 = tested on: UACC893
MCF10A = tested on: MCF10A
BT474 = tested on: BT474
MDAMB415 = tested on: MDAMB415
MGH312 = tested on: MGH312

Row | SMILES | area over the GR curve (MDAMB175VII) [GR] | area over the GR curve (MDAMB436) [GR] | area over the GR curve (HCC1187) [GR] | area over the GR curve (SUM44PE) [GR] | area over the GR curve (HCC70) [GR] | area over the GR curve (MCF12A) [GR] | area over the GR curve (HCC1143) [GR] | area over the GR curve (HCC202) [GR] | area over the GR curve (MDAMB453) [GR] | area over the GR curve (UACC893) [GR] | area over the GR curve (MCF10A) [GR] | area over the GR curve (BT474) [GR] | area over the GR curve (MDAMB415) [GR] | area over the GR curve (MGH312) [GR]
1 | COc1ccc2c(c1)[C@]1(C[C@H]1c1ccc3c(/C=C/c4ccc(CN5C[C@@H](C)O[C@@H](C)C5)cc4)n[nH]c3c1)C(=O)N2 | 0.589 | 0.768 | 0.535 | 0.898 | 1.11 | 0.499 | 0.534 | 0.299 | 0.537 | 0.416 | 0.817 | 0.475 | 0.36 | 1.19
2 | COc1cccc(OCCCN)c1-c1cc(Nc2cnc(C#N)cn2)n[nH]1 | 0.245 | 0.545 | 0.235 | 0.75 | 1.64 | 0.589 | 0.619 | 0.332 | 0.843 | 0.171 | 0.301 | 0.186 | 0.0862 | 0.0934
3 | CC(=O)Nc1cccc(-n2c(=O)n(C3CC3)c(=O)c3c(Nc4ccc(I)cc4F)n(C)c(=O)c(C)c32)c1 (max 1 µM) | 0.938 | 0.182 | 0.198 | 0.186 | 0.692 | 0.531 | 0.538 | 0.237 | 0.279 | 0.434 | 0.527 | -0.316 | 0.174 | -0.169
4 | CCc1cnn2c(NCc3ccc[n+]([O-])c3)cc(N3CCCC[C@H]3CCO)nc12 (max 1 µM) | 0.607 | 0.483 | 0.942 | 0.334 | 0.803 | 0.424 | 0.545 | 0.406 | 0.578 | 0.67 | 0.528 | 0.728 | 0.55 | 0.867
5 | CC(=O)c1c(C)c2cnc(Nc3ccc(N4CCNCC4)cn3)nc2n(C2CCCC2)c1=O (max 3.162 µM) | 0.763 | -0.0424 | 0.268 | 0.216 | -0.0552 | 0.0837 | 0.255 | 0.135 | 0.437 | 0.436 | 0.188 | 0.194 | 0.454 | -0.129
6 | CCc1cncnc1N1CCN(Cc2nc3ccc(C(F)(F)F)cc3[nH]2)CC1 (max 10 µM) | 0.314 | 0.0903 | 0.014 | 0.0041 | -0.077 | -0.0039 | 0.0639 | 0.0342 | -0.0403 | 0.0713 | 0.0475 | -0.104 | 0.0085 | -0.0701
7 | CCCCOc1c(C(=O)c2c(F)cc(C)cc2F)c[nH]c2nncc1-2 (max 10 µM) | 0.787 | 0.355 | 0.203 | 1.12 | 0.914 | 0.272 | 0.837 | 0.359 | 0.384 | 0.519 | 0.39 | 0.137 | 0.349 | 0.628
8 | CCN1CCN(Cc2ccc(Nc3ncc(F)c(-c4cc(F)c5nc(C)n(C(C)C)c5c4)n3)nc2)CC1 (max 10 µM) | 0.901 | 0.187 | 0.33 | 0.651 | 0.145 | 0.169 | 0.541 | 0.277 | 0.85 | 0.657 | 0.381 | 0.329 | 0.71 | 0.124
9 | CNc1nc(-c2ccc3c(N)n[nH]c3c2)cc(N2C[C@@H](C(=O)NC3CCCCC3)CC[C@H]2C)n1 (max 10 µM) | 0.59 | 0.0007 | -0.283 | 0.165 | 0.288 | 0.0618 | 0.0906 | 0.365 | 0.266 | 0.137 | -0.0162 | 0.332 | 0.295 | 0.718
10 | CO[C@@H](C)Cn1c(=O)n(C)c2cnc3ccc(-c4cncc(C(C)(C)O)c4)cc3c21 (max 10 µM) | 1.32 | 0.372 | 0.303 | 1.02 | 0.8 | 0.476 | 0.446 | 0.726 | 0.851 | 0.992 | 0.447 | 1.15 | 0.922 | 1.21
11 | Cc1nn(C)c(COc2ccc(N3CCN(S(=O)(=O)N(C)C)CC3)cc2)c1-c1cccc2c(CCCOc3cccc4ccccc34)c(C(=O)O)n(CCN3CCOCC3)c12 (max 10 µM) | 0.0271 | 0.014 | -0.0287 | 0.14 | 0.0018 | -0.0165 | 0.064 | -0.005 | -0.0756 | -0.0074 | 0.0018 | -0.0275 | 0.0101 | -0.123
12 | CN(C)CC[C@H](CSc1ccccc1)Nc1ccc(S(=O)(=O)NC(=O)c2ccc(N3CCN(Cc4ccccc4-c4ccc(Cl)cc4)CC3)cc2)cc1[N+](=O)[O-] [ABT-737] (max 10 µM) | 0.0499 | -0.0008 | 0.526 | -0.0051 | 0.0935 | 0.0052 | 0.102 | -0.0052 | -0.0061 | -0.0097 | 0.0104 | -0.0268 | 0.0607 | 0.224
13 | C=CCn1c(=O)c2cnc(Nc3ccc(N4CCN(C)CC4)cc3)nc2n1-c1cccc(C(C)(C)O)n1 [AZD1775] (max 10 µM) | 0.587 | 0.497 | 0.822 | 0.502 | 1.15 | 0.255 | 0.355 | 0.579 | 0.563 | 0.488 | 0.0857 | 0.387 | 0.28 | 0.334
14 | CNC(=O)c1cccc(-c2ccc3c(N4CCOC[C@@H]4C)nc(N4CCOC[C@@H]4C)nc3n2)c1 [AZD2014] (max 10 µM) | 1.35 | 0.363 | 0.296 | 0.917 | 0.778 | 0.529 | 0.422 | 0.698 | 0.692 | 0.845 | 0.4 | 1.01 | 0.762 | 1.39
